Earlier results on 3 compounds are cited in patent US20020037319A1, “Drug preparations” (priority 1999, published 2002).

The structures appear in SMILES notation. Where a name gives a salt, the structure may show the parent alone.

For data set [1] the following is noted: oral, therapeutic dosages between 100 mg and 200 mg per day.

On to `O=C(O)Cc1ccccc1Nc1c(Cl)cccc1Cl` [Diclofenac sodium], for which the solubility in water entry was “sparingly soluble”.
For the compound `O=C(O)Cc1ccccc1Nc1c(Cl)cccc1Cl` [diclofenac potassium], the solubility in water entry was “soluble”.
With `O=C(O)Cc1ccccc1Nc1c(Cl)cccc1Cl` [diclofenac, 2-[2,6-di-chlorophenyl)amino]benzeneacetic acid, monosodium or monopotassium salt], where the note is “sodium or potassium salt”, the solubility in chloroform result is on record as “practically insoluble”, the “solubility in dilute acid” value is listed as “practically insoluble”, the solubility in ethanol result is reported as “soluble” and the solubility in methanol entry is recorded as “freely soluble”. Moreover, in data set [1], the “treated patients who experience some form of GI (gastrointestinal) distress” value is given as “more than 50%”.
